Experimental data: patent US20190133964A1, “Polypeptide nano-bubbles and preparation method and application thereof” (NANJING MEDICAL UNIVERSITY, priority 2018, published 2019)

What was measured:
[1] = tested on: mice fed with high-fat diet; experiment: Weight of mice fed with high-fat diet during drug administration; type: in vivo; details: tail vein injection daily, 12 weeks after drug administration onward, FIG. 5
Source text: Experimental animals: male mice at the age of 6 weeks and feed were provided by the Experimental Animal Center of Nanjing Medical University, license number: SCXK (Su) 2011-0003. The animals are fed in different cages randomly, and drink water freely.
Experimental drugs: normal diet control group (blank control group); and high-fat diet groups are divided into a normal saline group (model control group), a nano-bubble group, a nano-bubble-curcumin group, a polypeptide nano-bubble group (prepared by step 3) in embodiment 1), a curcumin group and a polypeptide nano-bubble-curcumin group (prepared by step 4) in embodiment 1). […]

mice fed with high fat = experiment: Storage of visceral and subcutaneous adipose of mice fed with high fat; type: in vivo; details: for Weight: body weight after 20 weeks
Description: • 1) The obese mice fed with high fat are subjected to drug administration by intravenous injection for 20 weeks according to experimental steps in embodiment 2; • 2) the mice in the various groups are not fed with food for 12 hours, and are weighed accurately after being anaesthetized with 3% pentobarbital sodium at 45 mg/kg by intraperitoneal injection; • 3) the mice are conventionally sterilized and subjected to laparotomy, kidney surrounding adipose tissues, mesenterium surrounding adipose tissues, epididymis surrounding adipose tissues and abdominal subcutaneous adipose tissues are rapidly picked to weigh wet weight (wherein the range of the abdominal subcutaneous adipose tissues is as follows: the abdomen below an costal arch and above a groin, and a midaxillary line is taken as a boundary for two sides); • 4) the weight is calculated according to the following formula: wet weight of abdominal adipose; adipose pad total weight (g)=the kidney surrounding adipose tissues+the epididymis surrounding adipose tissues; and body adipose content=the adipose pad total weight (g)/body weight (g). • 5) The obtained data is subjected to statistical treatment.

[2] = high-fat diet mice, 20 weeks, n = 10
[3] = high-fat diet mice, tail vein injection 20 weeks, curcumin 75 mg/kg or nano-bubbles 40 μg/mice/time, n = 10, wet weight

In the case of `COc1cc(/C=C/C(=O)CC(=O)/C=C/c2ccc(O)c(OC)c2)ccc1O` [Curcumin, curcumin], the “Increasing of the weight of the mice compared with the model control group” value [1] was “obviously inhibited”, the “Wet weight of the visceral adipose tissues compared with the model control group” value (mice fed with high fat; Table 6) was “reduced obviously” and the “Total weight of visceral adipose tissues” value (mice fed with high fat; Table 6, high-fat diet mice, tail vein injection 20 weeks, n = 10) was 8.03 ± 0.02 g. The “Body fat mass index compared with the model control group” value (mice fed with high fat; Table 7) was “obviously reduced”, the Weight (mice fed with high fat; Table 7, high-fat diet mice, n = 10) was 34.92 ± 0.96 g and the Weight (mice fed with high fat; Table 8, high-fat diet mice, n = 10) was 35.72 ± 0.75 g. The “VAT (total weight of visceral adipose tissues)” value (mice fed with high fat; Table 8, high-fat diet mice, 20 weeks, n = 10) was 7.24 ± 0.02 g, the “Body fat mass index” value (mice fed with high fat; fat pad total weight (g)/weight (g), high-fat diet mice, 20 weeks, n = 10) was 6.38 ± 0.21 % and the “SCAT (subcutaneous adipose tissue total weight)” value (mice fed with high fat; [2]) was 3.01 ± 0.05 g. For the same compound, the SCAT/weight (mice fed with high fat; [2]) was 7.02 ± 0.38, the VAT/SCAT (mice fed with high fat; [2]) was 1.78 ± 0.09 and the “Amount of visceral adipose tissues: Epididymis surrounding” value (mice fed with high fat; [3]) was 1.21 ± 0.18 g. The “Amount of visceral adipose tissues: Kidney surrounding” value (mice fed with high fat; [3]) was 0.72 ± 0.05 g, the “Amount of visceral adipose tissues: Omentum and mesenterium surrounding” value (mice fed with high fat; [3]) was 0.59 ± 0.02 g and the “Fat pad total weight” value (mice fed with high fat; kidney surrounding + epididymis surrounding adipose tissues, high-fat diet mice, 20 weeks, n = 10) was 2.34 ± 0.10 g. For the same compound, the “Weight of the subcutaneous adipose compared with the model group” value (mice fed with high fat; text on Table 8) was “remarkably reduced”.
